Test [1] deals with T1, Alpha-1A adrenergic receptor (Homo sapiens, UniProt P35348).
T1 sequence (P35348 whole entry): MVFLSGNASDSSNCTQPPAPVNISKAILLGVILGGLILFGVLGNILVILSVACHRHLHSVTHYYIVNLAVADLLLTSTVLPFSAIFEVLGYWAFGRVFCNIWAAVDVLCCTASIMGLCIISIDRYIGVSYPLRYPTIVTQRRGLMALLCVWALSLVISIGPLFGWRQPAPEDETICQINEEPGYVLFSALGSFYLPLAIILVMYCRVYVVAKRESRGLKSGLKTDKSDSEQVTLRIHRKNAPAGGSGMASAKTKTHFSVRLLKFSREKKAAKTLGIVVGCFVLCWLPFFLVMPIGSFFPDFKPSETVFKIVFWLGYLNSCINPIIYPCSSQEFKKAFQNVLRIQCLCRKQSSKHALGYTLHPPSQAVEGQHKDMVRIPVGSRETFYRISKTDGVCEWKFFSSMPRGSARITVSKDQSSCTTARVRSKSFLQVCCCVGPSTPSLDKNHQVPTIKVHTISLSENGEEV
In kind it is functional, cell-based.

In test [2] the target is T1, Alpha-1A adrenergic receptor. In kind it is functional, cell-based. This is another data set of the same source.
For test [3], the target named is T2, Muscarinic acetylcholine receptor M1 (Homo sapiens, UniProt P11229).
T2 sequence (P11229 whole entry): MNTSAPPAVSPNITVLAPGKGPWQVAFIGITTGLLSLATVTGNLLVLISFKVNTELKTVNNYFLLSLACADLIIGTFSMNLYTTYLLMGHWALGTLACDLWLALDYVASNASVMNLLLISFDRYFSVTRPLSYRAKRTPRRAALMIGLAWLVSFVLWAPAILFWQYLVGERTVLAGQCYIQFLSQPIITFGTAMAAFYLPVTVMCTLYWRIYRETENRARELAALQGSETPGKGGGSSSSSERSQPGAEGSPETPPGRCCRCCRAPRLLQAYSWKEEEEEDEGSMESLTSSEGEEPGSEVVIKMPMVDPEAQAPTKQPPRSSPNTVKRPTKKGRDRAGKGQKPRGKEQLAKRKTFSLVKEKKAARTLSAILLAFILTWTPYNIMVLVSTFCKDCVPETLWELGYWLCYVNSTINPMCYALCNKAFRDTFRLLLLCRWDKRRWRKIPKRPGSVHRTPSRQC
In kind it is functional, cell-based.

The target of test [4] is T3, Muscarinic acetylcholine receptor M2 (Homo sapiens, UniProt P08172).
T3 sequence (P08172 whole entry): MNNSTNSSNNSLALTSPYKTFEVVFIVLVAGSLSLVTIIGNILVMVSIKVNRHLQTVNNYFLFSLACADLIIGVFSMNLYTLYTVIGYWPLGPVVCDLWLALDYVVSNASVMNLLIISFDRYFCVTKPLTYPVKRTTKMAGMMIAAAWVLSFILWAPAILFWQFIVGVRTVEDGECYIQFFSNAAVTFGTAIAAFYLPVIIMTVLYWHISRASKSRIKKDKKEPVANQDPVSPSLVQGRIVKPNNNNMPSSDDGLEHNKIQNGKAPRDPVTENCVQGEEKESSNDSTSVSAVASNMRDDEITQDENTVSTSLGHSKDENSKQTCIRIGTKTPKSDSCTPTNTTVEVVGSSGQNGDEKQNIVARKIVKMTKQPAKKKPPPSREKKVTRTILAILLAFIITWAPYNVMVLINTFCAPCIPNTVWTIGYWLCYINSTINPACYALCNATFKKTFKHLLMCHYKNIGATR

Test [5] deals with T4, Estrogen receptor (Homo sapiens, UniProt P03372).
T4 sequence (P03372 whole entry): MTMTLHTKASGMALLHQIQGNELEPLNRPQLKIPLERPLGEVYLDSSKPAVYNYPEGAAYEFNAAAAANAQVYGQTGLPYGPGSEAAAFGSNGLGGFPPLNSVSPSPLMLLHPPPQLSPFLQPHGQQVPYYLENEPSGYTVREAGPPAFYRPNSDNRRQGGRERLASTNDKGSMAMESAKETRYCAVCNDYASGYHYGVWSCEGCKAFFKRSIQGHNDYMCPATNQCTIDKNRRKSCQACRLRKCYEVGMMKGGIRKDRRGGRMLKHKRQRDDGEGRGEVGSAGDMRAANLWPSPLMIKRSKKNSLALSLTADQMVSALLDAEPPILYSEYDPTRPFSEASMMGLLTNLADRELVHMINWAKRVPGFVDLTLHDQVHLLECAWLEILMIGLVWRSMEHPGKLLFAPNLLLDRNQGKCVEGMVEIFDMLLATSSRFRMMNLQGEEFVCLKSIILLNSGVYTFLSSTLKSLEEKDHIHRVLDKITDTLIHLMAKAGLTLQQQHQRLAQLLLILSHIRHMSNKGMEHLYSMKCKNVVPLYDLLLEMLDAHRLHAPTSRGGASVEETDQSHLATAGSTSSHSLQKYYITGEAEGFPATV

Test [6] has as its target Histamine H3 receptor (Homo sapiens, UniProt Q9Y5N1).
Test [7] addresses Voltage-gated inwardly rectifying potassium channel KCNH2 (Homo sapiens, UniProt Q12809). The format is functional. The settings on record: read-out: AC50.
Test [8] addresses Mu-type opioid receptor (Homo sapiens, UniProt P35372).
Test [9] concerns the target cGMP-inhibited 3',5'-cyclic phosphodiesterase 3A (Homo sapiens, UniProt Q14432). In kind it is functional.
Test [10] has as its target 3',5'-cyclic-AMP phosphodiesterase 4A (Homo sapiens, UniProt P27815). The format is functional.
For test [11], the target named is T5, Prostaglandin G/H synthase 1 (Homo sapiens, UniProt P23219). The format is functional.
For test [12], the target named is T5, Prostaglandin G/H synthase 1. The format is functional. The source holds these as a separate data set.
The target of test [13] is Sodium-dependent serotonin transporter (Homo sapiens, UniProt P31645).

In general, AC50 refers to the midpoint of the concentration-response curve, whichever way the signal moves.
Also: assay procedure not described here.

Sequence of cGMP-inhibited 3',5'-cyclic phosphodiesterase 3A (Q14432 whole entry): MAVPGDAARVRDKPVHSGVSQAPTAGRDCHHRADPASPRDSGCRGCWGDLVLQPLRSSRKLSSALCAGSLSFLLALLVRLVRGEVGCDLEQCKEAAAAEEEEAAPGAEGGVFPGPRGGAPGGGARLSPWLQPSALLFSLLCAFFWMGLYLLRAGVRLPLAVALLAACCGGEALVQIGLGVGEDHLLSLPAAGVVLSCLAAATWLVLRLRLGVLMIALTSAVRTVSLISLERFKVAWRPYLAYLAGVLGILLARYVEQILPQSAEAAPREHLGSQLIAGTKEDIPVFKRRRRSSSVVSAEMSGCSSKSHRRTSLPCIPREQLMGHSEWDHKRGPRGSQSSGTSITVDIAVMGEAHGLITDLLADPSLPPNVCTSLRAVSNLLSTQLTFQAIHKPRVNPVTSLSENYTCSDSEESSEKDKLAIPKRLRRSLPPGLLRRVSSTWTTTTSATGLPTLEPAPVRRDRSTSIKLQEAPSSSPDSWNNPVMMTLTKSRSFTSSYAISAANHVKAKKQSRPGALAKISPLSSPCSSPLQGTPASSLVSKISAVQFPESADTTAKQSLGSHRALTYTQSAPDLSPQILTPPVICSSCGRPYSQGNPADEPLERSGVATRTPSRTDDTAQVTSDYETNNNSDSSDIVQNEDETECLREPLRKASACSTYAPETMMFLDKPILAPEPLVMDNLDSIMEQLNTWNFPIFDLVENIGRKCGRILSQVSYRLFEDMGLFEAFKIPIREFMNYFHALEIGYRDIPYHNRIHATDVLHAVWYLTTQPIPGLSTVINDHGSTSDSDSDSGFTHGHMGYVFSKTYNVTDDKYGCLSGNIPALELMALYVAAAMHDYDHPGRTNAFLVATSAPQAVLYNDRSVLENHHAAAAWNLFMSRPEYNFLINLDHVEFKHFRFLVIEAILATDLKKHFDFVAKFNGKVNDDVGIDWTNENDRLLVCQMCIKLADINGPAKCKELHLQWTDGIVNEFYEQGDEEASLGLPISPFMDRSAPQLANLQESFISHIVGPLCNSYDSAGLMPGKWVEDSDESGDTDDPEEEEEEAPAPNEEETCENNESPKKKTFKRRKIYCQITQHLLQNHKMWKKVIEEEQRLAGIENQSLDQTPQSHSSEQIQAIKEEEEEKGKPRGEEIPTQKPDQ
T5 sequence (P23219 whole entry): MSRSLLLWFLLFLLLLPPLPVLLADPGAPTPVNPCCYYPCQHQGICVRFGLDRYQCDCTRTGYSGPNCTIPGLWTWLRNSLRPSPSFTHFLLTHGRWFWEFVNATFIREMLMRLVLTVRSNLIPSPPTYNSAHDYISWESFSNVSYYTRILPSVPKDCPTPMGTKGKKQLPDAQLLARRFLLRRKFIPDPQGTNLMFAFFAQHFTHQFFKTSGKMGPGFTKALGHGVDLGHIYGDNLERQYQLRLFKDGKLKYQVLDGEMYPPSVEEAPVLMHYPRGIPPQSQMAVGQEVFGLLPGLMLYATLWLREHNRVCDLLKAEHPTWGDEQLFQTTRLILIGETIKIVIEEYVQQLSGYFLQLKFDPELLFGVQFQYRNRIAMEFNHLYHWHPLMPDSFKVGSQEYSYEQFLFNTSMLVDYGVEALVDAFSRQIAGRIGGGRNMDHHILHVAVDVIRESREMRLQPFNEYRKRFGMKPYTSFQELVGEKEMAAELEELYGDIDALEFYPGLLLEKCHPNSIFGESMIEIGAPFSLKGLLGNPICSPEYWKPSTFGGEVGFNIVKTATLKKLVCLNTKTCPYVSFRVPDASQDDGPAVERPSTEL
Sequence of Histamine H3 receptor (Q9Y5N1 whole entry): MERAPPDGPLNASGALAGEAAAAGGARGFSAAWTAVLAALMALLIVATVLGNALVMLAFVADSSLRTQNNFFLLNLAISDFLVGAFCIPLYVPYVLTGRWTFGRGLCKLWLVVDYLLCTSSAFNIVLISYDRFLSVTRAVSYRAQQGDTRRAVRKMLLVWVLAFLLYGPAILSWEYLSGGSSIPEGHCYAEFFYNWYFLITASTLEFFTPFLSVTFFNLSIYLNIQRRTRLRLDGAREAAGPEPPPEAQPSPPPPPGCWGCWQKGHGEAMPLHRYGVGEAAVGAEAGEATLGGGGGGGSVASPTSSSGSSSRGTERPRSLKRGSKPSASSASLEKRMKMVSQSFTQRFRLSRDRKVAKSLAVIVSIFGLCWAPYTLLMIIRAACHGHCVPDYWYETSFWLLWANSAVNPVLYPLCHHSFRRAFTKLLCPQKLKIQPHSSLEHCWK
Sequence of Voltage-gated inwardly rectifying potassium channel KCNH2 (Q12809 whole entry): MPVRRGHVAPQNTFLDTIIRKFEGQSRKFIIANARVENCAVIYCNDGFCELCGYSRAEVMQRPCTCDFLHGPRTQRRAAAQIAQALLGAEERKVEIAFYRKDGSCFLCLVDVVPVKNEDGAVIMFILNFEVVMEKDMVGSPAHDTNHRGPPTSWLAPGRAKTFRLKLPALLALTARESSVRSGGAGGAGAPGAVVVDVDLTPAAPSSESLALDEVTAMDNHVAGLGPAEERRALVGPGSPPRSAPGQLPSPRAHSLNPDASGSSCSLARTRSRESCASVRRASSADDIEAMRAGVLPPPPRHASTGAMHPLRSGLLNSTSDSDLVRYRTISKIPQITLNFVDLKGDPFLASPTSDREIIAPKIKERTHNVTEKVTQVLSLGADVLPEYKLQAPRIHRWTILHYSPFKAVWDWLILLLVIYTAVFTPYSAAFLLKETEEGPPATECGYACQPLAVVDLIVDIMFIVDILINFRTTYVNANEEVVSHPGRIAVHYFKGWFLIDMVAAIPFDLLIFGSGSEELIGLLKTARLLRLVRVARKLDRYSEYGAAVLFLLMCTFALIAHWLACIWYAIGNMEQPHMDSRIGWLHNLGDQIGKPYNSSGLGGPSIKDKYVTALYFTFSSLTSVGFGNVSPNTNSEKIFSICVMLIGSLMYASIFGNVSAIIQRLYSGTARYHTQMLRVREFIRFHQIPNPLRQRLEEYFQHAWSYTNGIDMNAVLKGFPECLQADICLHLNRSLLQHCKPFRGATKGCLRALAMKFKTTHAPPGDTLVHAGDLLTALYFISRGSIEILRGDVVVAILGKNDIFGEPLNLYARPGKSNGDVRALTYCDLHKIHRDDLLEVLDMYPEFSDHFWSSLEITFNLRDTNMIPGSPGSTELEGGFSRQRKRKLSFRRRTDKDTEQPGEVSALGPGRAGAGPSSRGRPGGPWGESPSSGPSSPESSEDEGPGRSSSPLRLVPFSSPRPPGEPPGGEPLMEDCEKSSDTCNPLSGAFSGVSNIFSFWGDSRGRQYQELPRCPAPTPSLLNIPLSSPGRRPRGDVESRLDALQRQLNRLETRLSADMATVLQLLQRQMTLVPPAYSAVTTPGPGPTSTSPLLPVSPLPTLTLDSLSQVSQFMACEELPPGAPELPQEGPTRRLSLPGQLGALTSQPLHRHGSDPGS
Sequence of Mu-type opioid receptor (P35372 whole entry): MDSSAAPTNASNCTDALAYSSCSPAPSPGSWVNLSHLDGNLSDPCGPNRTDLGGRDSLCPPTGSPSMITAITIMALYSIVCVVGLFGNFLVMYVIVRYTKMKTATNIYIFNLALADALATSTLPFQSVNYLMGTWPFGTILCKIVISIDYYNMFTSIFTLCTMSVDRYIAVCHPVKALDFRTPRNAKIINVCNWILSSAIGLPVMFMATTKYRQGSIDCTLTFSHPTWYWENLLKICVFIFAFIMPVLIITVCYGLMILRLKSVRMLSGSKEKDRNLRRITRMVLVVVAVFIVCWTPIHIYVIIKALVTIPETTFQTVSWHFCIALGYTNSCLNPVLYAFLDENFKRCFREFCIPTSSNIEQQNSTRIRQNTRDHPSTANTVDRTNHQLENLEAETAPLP
Sequence of 3',5'-cyclic-AMP phosphodiesterase 4A (P27815 whole entry): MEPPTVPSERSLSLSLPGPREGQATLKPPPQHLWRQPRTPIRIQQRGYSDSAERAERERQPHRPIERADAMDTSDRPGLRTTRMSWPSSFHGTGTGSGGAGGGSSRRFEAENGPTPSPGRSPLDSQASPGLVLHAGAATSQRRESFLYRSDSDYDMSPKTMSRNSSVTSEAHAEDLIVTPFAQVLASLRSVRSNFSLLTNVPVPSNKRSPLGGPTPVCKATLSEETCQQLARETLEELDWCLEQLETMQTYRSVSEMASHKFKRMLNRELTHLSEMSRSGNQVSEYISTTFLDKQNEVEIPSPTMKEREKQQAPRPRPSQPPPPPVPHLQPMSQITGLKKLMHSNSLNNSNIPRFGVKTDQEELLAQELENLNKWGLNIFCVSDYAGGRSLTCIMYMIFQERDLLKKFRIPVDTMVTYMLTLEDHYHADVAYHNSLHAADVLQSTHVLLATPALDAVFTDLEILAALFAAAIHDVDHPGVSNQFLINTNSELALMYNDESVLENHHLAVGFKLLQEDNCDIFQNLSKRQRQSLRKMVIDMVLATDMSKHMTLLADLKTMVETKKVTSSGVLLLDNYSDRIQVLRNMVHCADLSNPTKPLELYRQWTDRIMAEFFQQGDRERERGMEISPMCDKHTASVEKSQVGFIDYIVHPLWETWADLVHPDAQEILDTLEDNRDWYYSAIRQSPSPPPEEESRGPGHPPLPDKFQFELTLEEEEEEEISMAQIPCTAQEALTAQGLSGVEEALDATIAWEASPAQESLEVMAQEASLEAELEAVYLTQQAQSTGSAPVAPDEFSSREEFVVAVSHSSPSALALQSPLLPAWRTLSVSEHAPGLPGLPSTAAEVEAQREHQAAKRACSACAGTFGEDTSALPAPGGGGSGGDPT

Take `O=C(Oc1ccc2c(c1)CCCN2C(=O)C(Cl)Cl)c1ccco1` [QUINFAMIDE]: the AC50 in test [1] was more than 30 µM; in test [2], 24.6 µM; in [3], 15.4 µM; in test [4] it was more than 30 µM; in test [5], 20.3 µM; in test [6], more than 30 µM. Besides, the concentration at half-maximal activity (AC50) in test [7], in test [8], in test [9], in test [10], in test [11] and in [12] was more than 30 µM each time. In test [13], this compound gave a concentration at half-maximal activity (AC50) of more than 30 µM.
Consider `O=C(Nc1ccc(Cl)cc1)Nc1ccc(Cl)c(Cl)c1` [TRICLOCARBAN], for which the AC50 in [1] is more than 30 µM; in test [2] it was 2.44 µM; in test [3], 0.702 µM; in test [4] it was more than 30 µM; in test [5], more than 30 µM; in test [6], more than 30 µM. The AC50 in [7] is more than 30 µM; in test [8], 4.85 µM; in [9] it was 11.6 µM; in test [10], 25.4 µM; in test [11], more than 30 µM; in [12] it was more than 30 µM. This compound also yielded an AC50 in test [13] of more than 30 µM.
`CCN(CC)CCc1nc(-c2ccccc2)no1` [OXOLAMINE]: the half-maximal activity concentration (AC50) was more than 30 µM in test [1]; more than 30 µM in test [2]; more than 30 µM in test [3]; more than 30 µM in test [4]; more than 30 µM in test [5]; 23.9 µM in test [6]. Besides, the half-maximal activity concentration (AC50) in [7], in [8], in test [9], in test [10], in [11] and in [12] was more than 30 µM throughout. The compound further yielded an AC50 in test [13] of more than 30 µM.
For the compound `CC(C)(C)C(=O)C(Oc1ccc(Cl)cc1)n1ccnc1` (stereo unspecified) [CLIMBAZOLE], the concentration at half-maximal activity (AC50) in test [1] was more than 30 µM; in [2], 25.6 µM; in test [3], 10.2 µM; in [4] it was more than 30 µM; in test [5] it was more than 30 µM; in test [6], more than 30 µM. The concentration at half-maximal activity (AC50) in test [7], in [8], in test [9], in test [10], in test [11] and in [12] was more than 30 µM each time. In [13], this compound showed an AC50 of 29.7 µM.
`N[C@H]1C(O)O[C@H](CO)[C@@H](O)[C@@H]1O` (stereo partly specified) [GLUCOSAMINE]: the AC50 in test [1], in test [2], in test [3], in test [4], in test [5] and in [6] was more than 30 µM in each case. The AC50 in test [7], in [8], in test [9], in test [10], in test [11] and in [12] was more than 30 µM throughout. The half-maximal activity concentration (AC50) in [13] was more than 30 µM.
For the compound `CCOc1ccccc1C(N)=O` [ETHENZAMIDE], the half-maximal activity concentration (AC50) in test [1], in test [2], in test [3], in test [4], in [5] and in [6] was more than 30 µM in each case. Besides, the AC50 in test [7], in test [8], in [9], in [10], in test [11] and in test [12] was more than 30 µM throughout. The AC50 in test [13] is more than 30 µM.
Turning to `O=[N+]([O-])O[C@@H]1CO[C@H]2[C@@H]1OC[C@@H]2O` [ISOSORBIDE MONONITRATE], the AC50 in [1], in test [2], in test [3], in test [4], in [5] and in test [6] was more than 30 µM each time. Also, the AC50 in [7], in test [8], in [9], in test [10], in [11] and in test [12] was more than 30 µM each time. The same compound returned a half-maximal activity concentration (AC50) in test [13] of more than 30 µM.

The values above are taken from ChEMBL document CHEMBL5291721, “A preclinical secondary pharmacology resource illuminates target-adverse drug reaction associations of marketed drugs” (Nat Commun, 2023).
